The target in assay [1] is Neuronal acetylcholine receptor subunit beta-2 (Homo sapiens) (UniProt P17787). Nature of the assay: Selectivity interaction (Eurofins CEREP Diversity Profile (receptors and ion channels)) EUB0000279b CHRNB2. The following applies: at 10 µM.
The target of assay [2] is T1, Serine/threonine-protein kinase BRSK2 (Homo sapiens) (UniProt Q8IWQ3).
T1 sequence (whole entry): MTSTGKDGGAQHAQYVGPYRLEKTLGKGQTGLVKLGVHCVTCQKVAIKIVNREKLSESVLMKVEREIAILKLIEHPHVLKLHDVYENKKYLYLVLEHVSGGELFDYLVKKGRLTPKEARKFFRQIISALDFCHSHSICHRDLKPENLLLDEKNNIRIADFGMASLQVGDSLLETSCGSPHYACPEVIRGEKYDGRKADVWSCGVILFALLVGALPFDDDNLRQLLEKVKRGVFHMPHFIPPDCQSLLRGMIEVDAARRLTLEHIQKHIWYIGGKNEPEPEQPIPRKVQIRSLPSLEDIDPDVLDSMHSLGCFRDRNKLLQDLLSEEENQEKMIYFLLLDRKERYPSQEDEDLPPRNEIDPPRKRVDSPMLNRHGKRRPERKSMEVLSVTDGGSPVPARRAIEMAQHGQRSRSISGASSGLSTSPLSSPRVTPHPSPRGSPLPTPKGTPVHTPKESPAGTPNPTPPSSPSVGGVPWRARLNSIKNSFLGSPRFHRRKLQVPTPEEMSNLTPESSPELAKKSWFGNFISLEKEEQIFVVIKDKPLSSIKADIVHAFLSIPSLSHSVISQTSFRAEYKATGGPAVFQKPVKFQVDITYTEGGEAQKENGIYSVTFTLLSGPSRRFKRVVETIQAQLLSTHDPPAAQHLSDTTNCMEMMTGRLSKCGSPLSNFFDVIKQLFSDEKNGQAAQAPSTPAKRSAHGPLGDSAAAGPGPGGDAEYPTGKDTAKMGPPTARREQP
To be noted: at 10 µM.

In assay [3] the target is T2, NUAK family SNF1-like kinase 1 (Homo sapiens) (UniProt O60285).
T2 sequence (whole entry): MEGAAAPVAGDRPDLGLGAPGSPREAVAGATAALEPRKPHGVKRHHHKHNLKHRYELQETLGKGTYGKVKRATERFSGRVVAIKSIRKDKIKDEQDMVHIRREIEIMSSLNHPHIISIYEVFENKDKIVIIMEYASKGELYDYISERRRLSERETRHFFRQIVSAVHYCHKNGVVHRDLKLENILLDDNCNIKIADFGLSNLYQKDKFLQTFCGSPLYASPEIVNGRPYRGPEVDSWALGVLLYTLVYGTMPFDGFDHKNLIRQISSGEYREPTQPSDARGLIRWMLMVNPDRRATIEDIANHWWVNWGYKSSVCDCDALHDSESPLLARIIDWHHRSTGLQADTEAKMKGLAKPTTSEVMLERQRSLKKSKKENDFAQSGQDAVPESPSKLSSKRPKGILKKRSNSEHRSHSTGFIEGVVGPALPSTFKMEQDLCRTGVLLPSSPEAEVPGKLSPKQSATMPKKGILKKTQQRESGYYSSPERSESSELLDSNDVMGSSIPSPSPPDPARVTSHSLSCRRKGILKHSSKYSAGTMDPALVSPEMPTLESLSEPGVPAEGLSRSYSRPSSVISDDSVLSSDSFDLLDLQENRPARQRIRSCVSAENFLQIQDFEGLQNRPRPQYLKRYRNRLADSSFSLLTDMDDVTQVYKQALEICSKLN
Nature of the assay: Selectivity interaction (KinomeScan (DiscoverX)) EUB0000607a NUAK1. The following applies: at 10 µM.

Assay [4] addresses T3, Ephrin type-B receptor 2 (Homo sapiens) (UniProt P29323).
T3 sequence (whole entry): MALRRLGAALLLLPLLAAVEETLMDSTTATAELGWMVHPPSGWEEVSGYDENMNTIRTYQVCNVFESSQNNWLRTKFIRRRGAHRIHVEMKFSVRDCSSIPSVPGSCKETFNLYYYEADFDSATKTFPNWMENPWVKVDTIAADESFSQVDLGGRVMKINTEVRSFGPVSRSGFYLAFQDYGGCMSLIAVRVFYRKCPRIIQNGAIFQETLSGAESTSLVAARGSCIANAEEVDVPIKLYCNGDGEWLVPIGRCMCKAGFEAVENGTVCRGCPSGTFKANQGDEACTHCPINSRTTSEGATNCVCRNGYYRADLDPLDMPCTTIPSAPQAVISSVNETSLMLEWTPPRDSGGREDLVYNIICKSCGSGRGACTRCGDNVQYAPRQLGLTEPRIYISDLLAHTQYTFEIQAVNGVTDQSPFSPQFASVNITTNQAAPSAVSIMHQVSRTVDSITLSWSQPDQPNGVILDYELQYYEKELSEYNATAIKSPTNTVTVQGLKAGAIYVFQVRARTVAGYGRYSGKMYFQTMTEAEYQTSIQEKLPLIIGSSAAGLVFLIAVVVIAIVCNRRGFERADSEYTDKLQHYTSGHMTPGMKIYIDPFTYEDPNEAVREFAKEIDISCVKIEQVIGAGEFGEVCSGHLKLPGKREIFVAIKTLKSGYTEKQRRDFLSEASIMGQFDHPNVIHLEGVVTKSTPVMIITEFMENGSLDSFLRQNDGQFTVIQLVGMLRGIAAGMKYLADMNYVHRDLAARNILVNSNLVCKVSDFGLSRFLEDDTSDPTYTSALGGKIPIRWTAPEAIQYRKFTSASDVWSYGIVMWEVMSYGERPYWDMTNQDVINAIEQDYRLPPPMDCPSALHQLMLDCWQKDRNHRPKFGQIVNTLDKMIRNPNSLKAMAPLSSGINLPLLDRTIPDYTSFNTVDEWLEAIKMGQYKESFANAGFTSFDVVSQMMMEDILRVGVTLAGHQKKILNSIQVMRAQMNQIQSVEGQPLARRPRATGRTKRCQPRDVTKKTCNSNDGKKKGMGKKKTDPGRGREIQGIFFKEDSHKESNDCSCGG
Nature of the assay: Selectivity interaction (KinomeScan (DiscoverX)) EUB0000607a EPHB2. To be noted: at 10 µM.

For assay [5], the target named is High affinity nerve growth factor receptor (Homo sapiens, UniProt P04629). Nature of the assay: Selectivity interaction (ProQinase) EUB0000171b NTRK1.
For assay [6], the target named is Mitogen-activated protein kinase kinase kinase kinase 1 (Homo sapiens) (UniProt Q92918). Nature of the assay: Selectivity interaction (Ambit KINOMEscan and KiNATiv profiling in Jurkat cells) EUB0000090b MAP4K1. Format: cell-based. To be noted: at 1 µM.
Assay [7] deals with Serine/threonine-protein kinase PLK2 (Homo sapiens, UniProt Q9NYY3). Nature of the assay: Selectivity interaction (KinomeScan (DiscoverX)) EUB0000618a PLK2. The following applies: at 10 µM.

SMILES strings stand for the structures.

Sequence of High affinity nerve growth factor receptor (P04629 33-796 limits assumed): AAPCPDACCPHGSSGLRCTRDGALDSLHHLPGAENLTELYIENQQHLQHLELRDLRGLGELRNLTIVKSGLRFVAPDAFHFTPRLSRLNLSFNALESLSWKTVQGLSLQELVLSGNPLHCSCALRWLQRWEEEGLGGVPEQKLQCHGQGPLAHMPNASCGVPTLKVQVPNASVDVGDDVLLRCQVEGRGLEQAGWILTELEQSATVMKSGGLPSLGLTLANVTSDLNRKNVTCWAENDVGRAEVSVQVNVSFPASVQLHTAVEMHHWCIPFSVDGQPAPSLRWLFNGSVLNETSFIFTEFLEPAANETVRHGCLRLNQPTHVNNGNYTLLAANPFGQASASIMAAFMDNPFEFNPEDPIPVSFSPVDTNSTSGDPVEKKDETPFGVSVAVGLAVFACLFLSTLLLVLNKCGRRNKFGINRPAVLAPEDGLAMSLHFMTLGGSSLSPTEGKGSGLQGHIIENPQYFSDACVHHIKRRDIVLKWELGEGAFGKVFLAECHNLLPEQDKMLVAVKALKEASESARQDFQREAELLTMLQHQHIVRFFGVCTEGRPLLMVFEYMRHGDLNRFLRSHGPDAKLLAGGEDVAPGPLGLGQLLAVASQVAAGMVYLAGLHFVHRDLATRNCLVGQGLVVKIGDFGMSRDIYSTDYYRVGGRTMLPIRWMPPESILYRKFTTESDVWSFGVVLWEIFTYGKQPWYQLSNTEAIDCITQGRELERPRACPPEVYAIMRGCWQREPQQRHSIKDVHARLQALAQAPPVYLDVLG
Sequence of Neuronal acetylcholine receptor subunit beta-2 (Homo sapiens) (P17787 whole entry): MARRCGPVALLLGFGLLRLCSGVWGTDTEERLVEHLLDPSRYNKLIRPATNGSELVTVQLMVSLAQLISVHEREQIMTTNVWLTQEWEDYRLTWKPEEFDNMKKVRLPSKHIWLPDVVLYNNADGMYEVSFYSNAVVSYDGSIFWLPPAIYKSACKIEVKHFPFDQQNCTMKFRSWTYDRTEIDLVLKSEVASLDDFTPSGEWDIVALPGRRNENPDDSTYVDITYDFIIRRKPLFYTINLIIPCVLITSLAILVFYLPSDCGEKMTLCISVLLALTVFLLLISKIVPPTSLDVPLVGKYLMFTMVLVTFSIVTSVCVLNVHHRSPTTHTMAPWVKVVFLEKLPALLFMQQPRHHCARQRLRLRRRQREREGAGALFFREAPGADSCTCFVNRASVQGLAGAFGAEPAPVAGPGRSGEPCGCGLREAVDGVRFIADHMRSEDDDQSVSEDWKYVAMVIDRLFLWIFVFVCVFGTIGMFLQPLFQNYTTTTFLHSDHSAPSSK
Sequence of Mitogen-activated protein kinase kinase kinase kinase 1 (Homo sapiens) (Q92918 whole entry, looked up): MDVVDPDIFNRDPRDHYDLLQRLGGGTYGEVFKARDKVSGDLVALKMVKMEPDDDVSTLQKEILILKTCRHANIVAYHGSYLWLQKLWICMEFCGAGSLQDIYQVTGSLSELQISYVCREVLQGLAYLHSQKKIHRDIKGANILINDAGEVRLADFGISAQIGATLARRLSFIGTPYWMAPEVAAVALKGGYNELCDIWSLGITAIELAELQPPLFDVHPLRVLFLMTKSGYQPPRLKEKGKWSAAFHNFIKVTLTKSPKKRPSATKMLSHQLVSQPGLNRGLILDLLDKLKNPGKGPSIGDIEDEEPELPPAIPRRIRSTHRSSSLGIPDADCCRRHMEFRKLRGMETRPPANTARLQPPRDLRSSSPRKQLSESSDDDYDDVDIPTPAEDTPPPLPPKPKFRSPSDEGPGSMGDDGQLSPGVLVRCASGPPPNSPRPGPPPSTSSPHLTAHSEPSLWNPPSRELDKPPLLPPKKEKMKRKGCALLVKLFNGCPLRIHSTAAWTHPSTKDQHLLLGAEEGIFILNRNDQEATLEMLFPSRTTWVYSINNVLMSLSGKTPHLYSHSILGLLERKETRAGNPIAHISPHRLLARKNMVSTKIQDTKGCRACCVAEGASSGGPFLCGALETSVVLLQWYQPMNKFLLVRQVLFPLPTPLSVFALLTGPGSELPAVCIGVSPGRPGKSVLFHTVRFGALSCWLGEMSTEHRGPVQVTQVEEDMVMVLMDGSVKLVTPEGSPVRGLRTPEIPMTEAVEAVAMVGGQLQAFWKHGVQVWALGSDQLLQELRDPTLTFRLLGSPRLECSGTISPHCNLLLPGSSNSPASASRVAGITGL
Sequence of Serine/threonine-protein kinase PLK2 (Q9NYY3 whole entry, looked up): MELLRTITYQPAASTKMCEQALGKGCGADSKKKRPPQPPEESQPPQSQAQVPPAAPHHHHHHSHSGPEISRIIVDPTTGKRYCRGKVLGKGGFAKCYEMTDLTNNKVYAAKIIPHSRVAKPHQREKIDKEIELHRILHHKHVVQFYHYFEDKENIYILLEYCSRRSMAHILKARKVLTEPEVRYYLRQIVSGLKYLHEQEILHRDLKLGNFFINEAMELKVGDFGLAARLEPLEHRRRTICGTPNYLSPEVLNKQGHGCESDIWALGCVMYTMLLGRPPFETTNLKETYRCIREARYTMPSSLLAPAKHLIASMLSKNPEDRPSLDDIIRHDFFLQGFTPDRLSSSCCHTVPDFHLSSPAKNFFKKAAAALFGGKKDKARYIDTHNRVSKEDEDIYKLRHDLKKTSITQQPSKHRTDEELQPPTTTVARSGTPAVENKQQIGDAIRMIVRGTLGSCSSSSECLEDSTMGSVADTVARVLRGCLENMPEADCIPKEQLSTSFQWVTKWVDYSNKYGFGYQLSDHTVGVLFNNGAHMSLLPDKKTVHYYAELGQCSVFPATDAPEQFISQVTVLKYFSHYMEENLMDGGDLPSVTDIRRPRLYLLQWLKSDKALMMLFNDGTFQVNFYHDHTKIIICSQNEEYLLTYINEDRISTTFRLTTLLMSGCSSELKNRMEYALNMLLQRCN

In turn, `CC(=O)c1cc(-c2ccccc2OCC2CC2)c2ncccn12` registered a % of control in assay [1] of 105%.

In assay [2], `CCN(CC)CCCCNc1ncc2cc(-c3cc(OC)cc(OC)c3)c(NC(=O)NC(C)(C)C)nc2n1` came in with a % of control of 100%.

Consider `CNC(=O)Nc1ccc(-c2nc(N3CC4CCC(C3)O4)c3cnn(C4CCC5(CC4)OCCO5)c3n2)cc1`, for which the results for the % of control in assay [3] and in assay [4] were 82% and 78%, respectively.

Turning to `C=CC(=O)Nc1cccc(C(=O)Nc2ccc(Nc3cc(-c4[nH]c(SC)nc4C)ccn3)cc2)c1`, the % of control in assay [5] (at 1 µM) was found to be 81%; in assay [5] (at 5 µM) it was 58%.

For `CN(C)C/C=C/C(=O)Nc1ccc(C(=O)N2CCCC(Nc3ncc(Cl)c(-c4c[nH]c5ccccc45)n3)C2)cc1` (stereo not drawn), in assay [6], the % of control stood at 80%.

Turning to `O[C@H]1CC[C@H](Nc2ncc3nc(Nc4c(F)cc(F)cc4F)n([C@H]4CCOC4)c3n2)CC1`, the % of control in assay [7] amounted to 100%.
